Consider seven compounds from patent US20260092039A1, “DUAL INHIBITORS FOR THE TREATMENT OF ALZHEIMER'S DISEASE” (UNIVERSITAT DE BARCELONA, priority 2023, published 2026).

Data set [1] in a line: Parallel artificial membrane permeation assay for blood-brain barrier (PAMPA-BBB). Format: in vitro ADME, porcine. To be noted: for Papp: pig, PBS:EtOH (70:30), read-out: Blood-brain barrier permeability Pe; for CNS prediction: predictive penetration in the CNS from Pe. Here is the method:
A parallel artificial membrane permeation assay for blood-brain barrier (PAMPA-BBB) was used to evaluate the brain penetration of compounds of formula I, following the method described by L. Di et al., “High throughput artificial membrane permeability assay for blood-brain barrier”, European Journal of Medicinal Chemistry 2003, vol. 38. pp. 223-232. The in vitro permeability (Pe) of the test compounds through a lipid extract of porcine brain membrane was determined. Assayed compounds were tested using a mixture of PBS:EtOH (70:30). Assay validation was made by comparing the experimental and reported permeability values of a set of fourteen commercial drugs and a lineal correlation between experimental and reported permeability values of the fourteen commercial drugs was obtained (y=1.678 x−1.447; R^2=0.9313). From this equation and taking into account the limits established by Di et al. for BBB permeation, the ranges of permeability were established, as follows. Compounds of high BBB permeation (CNS+): Pe (10^−6 cm s^−1)>5.26; compounds of low BBB permeation (CNS−): Pe (10^−6 cm s^−1)<1.91; and compounds of uncertain BBB permeation (CNS+/−): 5.26>Pe (10^−6 cm s^−1)>1.91. The permeability results are averages of three different experiments in triplicate and a predictive penetration in the CNS is also given (Table 5).

Data set [2] has as its target T1, recombinant human sEH (hsEH) (Homo sapiens, UniProt P34913).
T1 sequence (P34913 1-555): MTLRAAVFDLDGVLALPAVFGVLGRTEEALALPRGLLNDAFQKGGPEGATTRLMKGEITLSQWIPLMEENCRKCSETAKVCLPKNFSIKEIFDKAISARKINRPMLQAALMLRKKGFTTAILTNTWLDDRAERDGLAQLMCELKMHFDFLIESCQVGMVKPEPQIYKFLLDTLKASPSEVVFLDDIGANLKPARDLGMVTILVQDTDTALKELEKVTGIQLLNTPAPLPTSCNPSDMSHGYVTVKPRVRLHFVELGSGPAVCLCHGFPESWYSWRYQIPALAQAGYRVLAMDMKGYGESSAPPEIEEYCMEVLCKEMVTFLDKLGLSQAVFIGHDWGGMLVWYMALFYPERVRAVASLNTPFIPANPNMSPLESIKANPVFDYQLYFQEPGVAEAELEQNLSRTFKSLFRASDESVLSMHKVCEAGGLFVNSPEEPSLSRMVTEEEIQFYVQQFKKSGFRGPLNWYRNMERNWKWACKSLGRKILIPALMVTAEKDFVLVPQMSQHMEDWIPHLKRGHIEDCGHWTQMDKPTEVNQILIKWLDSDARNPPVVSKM
In words: In vitro determination of sEH inhibitory activity (fluorescent PHOME assay).
Description: Control compound (TPPU): N-[1-(1-Oxopropyl)-4-piperidinyl]-N′-[4-(trifluoromethoxy)phenyl]urea.
Five μL of DMSO were added to background and positive control wells, and then 5 μL of inhibitor solution were added in the inhibitor wells. Five μL of the solution of hsEH were added to the positive control and inhibitor wells and the mixture was stirred. A 1/21 dilution of the solution of PHOME with assay buffer was prepared according to the final volume required, and then 105 μL of each well were added. The plate was carefully shaken for 10 seconds and was incubated for 5 minutes at room temperature. […] The intensity of fluorescence was used to analyze and calculate the IC50 values. Results were obtained by regression analysis from at least three data points in a linear region of the curve. IC50 values are average of minimum three independent replicates.

Data set [3] has as its target T2, human recombinant glutaminyl cyclase (hQC) (Homo sapiens, UniProt Q16769).
T2 construct: purchased Eurogentec AS-72230
Description: In vitro determination of human QC inhibitory activity (SensoLyte Green Glutaminyl Cyclase Activity Assay Kit). Type of data set: biochemical. Here is the method: Basic statistical analysis was performed.

T2 sequence (Q16769 29-361): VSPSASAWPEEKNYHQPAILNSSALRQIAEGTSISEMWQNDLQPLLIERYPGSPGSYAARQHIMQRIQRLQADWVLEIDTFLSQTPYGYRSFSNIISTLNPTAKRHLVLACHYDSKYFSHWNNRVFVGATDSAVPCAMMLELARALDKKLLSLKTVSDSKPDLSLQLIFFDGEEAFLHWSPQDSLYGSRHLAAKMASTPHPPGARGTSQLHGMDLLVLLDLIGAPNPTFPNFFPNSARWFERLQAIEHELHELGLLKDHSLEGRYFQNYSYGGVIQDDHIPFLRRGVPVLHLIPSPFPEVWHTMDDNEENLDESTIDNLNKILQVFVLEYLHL

For orientation: IC50 means the concentration needed to halve the response being measured. On to `Cc1cncn1CCCNC(=O)NCC12CC3CC(CC(C3)C1)C2` [Ik, 1-[(adamantan-1-yl)methyl]-3-[3-(5-methyl-1H-imidazol-1-yl)propyl]urea], for which, in data set [1], the Papp was determined as 14.1 ×10⁻⁶ cm/s and the CNS prediction entry was “CNS+ (Compounds of high BBB permeation (CNS+): Pe (10^−6 cm s^−1)>5.26)”. The IC50 in data set [2] worked out at 9 nM. The IC50 in data set [3] was 730 nM.

In the case of `O=C(NCCCn1ccnc1)NCC12CC3CC(CC(C3)C1)C2` [Im, 1-[3-(1H-imidazol-1-yl)propyl]-3-[(adamantan-1-yl)methyl]urea], in data set [1], the Papp was found to be 11.8 ×10⁻⁶ cm/s and the CNS prediction result was “CNS+ (Compounds of high BBB permeation (CNS+): Pe (10^−6 cm s^−1)>5.26)”. Further, the IC50 in data set [2] was found to be 300 nM. The IC50 in data set [3] stood at 3500 nM.

`Cc1cncn1CCCNC(=O)NCCC12CC3CC(CC(C3)C1)C2` [Io, 1-[2-(adamantan-1-yl)ethyl]-3-[3-(5-methyl-1H-imidazol-1-yl)propyl]urea]: the Papp in data set [1] is 18.7 ×10⁻⁶ cm/s. In addition, the CNS prediction entry in data set [1] is “CNS+ (Compounds of high BBB permeation (CNS+): Pe (10^−6 cm s^−1)>5.26)”. The IC50 in data set [2] worked out at 1.3 nM; in data set [3], 1650 nM.

As to `Cc1cncn1CCCNC(=O)NCCC1C2CC3CC(C2)CC1C3` (stereo not shown) [Ip, 1-[2-(adamantan-2-yl)ethyl]-3-[3-(5-methyl-1H-imidazol-1-yl)propyl]urea], the Papp in data set [1] was 13 ×10⁻⁶ cm/s. Besides, in data set [1], the CNS prediction entry was “CNS+ (Compounds of high BBB permeation (CNS+): Pe (10^−6 cm s^−1)>5.26)”. In addition, the IC50 in data set [2] amounted to 95 nM; in data set [3] it was 1450 nM.

Regarding `Cc1cncn1CCCNC(=O)NC12CC3CC(CC1C3)C2` [It, 1-(noradamantan-3-yl)-3-[3-(5-methyl-1H-imidazol-1-yl)propyl]urea], the Papp in data set [1] is 5.8 ×10⁻⁶ cm/s. Besides, in data set [1], the CNS prediction result was “CNS+ (Compounds of high BBB permeation (CNS+): Pe (10^−6 cm s^−1)>5.26)”. Also, the results for the IC50 in data set [2] and in data set [3] were 185 nM and 460 nM, respectively.

Consider `Cc1cncn1CCCNC(=O)NC12CC3(C)C4(C)CC1CC4(C)C3(C)C2` [Iv, 1-[3-(5-methyl-1H-imidazol-1-yl)propyl]-3-(3,4,8,9-tetramethyltetracyclo[4.4.0.0^3,9.0^4,8]decan-1-yl)urea], for which, in data set [1], the Papp turned out to be 7.5 ×10⁻⁶ cm/s and the CNS prediction result was “CNS+ (Compounds of high BBB permeation (CNS+): Pe (10^−6 cm s^−1)>5.26)”. For the same compound, the IC50 in data set [2] was 103 nM. Further, the IC50 in data set [3] is 540 nM.

Consider `Cc1cncn1CCCNC(=O)N(C)C1C2CC3CC(C2)CC1C3` (stereo not shown) [Iy, 1-(adamantan-2-yl)-1-methyl-3-[3-(5-methyl-1H-imidazol-1-yl)propyl]urea], for which, in data set [1], the Papp came out at 9.8 ×10⁻⁶ cm/s. In data set [1], the CNS prediction entry was “CNS+ (Compounds of high BBB permeation (CNS+): Pe (10^−6 cm s^−1)>5.26)”. Moreover, the IC50 in data set [2] is 23 nM; in data set [3] it was 205 nM.
